Source: patent US11123337B2, “4-methylsulfonyl-substituted piperidine urea compounds” (MYOKARDIA, INC., priority 2015, dated 2021)

Molecular target: bovine cardiac myosin (Bos taurus, UniProt Q9BE39)
Assay: Myosin activation assay (PK/LDH-coupled ATPase, bovine cardiac myofibrils)
Assay type: biochemical
Settings: AC20 = concentration at which total response is increased by twenty percent
Outline: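 Values are the concentrations raising the ATPase rate by 20% or 50% over DMSO, from 10-point dose responses fitted with four parameters. Rate is NADH loss at 340 nm via PK/LDH coupling, read 15 min at room temperature, in pH 6.8 PIPES with 50 μM ATP. Bovine cardiac myofibrils were held at pCa ~6 or pCa 10.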

bovine cardiac myosin, sequence (Q9BE39 whole entry): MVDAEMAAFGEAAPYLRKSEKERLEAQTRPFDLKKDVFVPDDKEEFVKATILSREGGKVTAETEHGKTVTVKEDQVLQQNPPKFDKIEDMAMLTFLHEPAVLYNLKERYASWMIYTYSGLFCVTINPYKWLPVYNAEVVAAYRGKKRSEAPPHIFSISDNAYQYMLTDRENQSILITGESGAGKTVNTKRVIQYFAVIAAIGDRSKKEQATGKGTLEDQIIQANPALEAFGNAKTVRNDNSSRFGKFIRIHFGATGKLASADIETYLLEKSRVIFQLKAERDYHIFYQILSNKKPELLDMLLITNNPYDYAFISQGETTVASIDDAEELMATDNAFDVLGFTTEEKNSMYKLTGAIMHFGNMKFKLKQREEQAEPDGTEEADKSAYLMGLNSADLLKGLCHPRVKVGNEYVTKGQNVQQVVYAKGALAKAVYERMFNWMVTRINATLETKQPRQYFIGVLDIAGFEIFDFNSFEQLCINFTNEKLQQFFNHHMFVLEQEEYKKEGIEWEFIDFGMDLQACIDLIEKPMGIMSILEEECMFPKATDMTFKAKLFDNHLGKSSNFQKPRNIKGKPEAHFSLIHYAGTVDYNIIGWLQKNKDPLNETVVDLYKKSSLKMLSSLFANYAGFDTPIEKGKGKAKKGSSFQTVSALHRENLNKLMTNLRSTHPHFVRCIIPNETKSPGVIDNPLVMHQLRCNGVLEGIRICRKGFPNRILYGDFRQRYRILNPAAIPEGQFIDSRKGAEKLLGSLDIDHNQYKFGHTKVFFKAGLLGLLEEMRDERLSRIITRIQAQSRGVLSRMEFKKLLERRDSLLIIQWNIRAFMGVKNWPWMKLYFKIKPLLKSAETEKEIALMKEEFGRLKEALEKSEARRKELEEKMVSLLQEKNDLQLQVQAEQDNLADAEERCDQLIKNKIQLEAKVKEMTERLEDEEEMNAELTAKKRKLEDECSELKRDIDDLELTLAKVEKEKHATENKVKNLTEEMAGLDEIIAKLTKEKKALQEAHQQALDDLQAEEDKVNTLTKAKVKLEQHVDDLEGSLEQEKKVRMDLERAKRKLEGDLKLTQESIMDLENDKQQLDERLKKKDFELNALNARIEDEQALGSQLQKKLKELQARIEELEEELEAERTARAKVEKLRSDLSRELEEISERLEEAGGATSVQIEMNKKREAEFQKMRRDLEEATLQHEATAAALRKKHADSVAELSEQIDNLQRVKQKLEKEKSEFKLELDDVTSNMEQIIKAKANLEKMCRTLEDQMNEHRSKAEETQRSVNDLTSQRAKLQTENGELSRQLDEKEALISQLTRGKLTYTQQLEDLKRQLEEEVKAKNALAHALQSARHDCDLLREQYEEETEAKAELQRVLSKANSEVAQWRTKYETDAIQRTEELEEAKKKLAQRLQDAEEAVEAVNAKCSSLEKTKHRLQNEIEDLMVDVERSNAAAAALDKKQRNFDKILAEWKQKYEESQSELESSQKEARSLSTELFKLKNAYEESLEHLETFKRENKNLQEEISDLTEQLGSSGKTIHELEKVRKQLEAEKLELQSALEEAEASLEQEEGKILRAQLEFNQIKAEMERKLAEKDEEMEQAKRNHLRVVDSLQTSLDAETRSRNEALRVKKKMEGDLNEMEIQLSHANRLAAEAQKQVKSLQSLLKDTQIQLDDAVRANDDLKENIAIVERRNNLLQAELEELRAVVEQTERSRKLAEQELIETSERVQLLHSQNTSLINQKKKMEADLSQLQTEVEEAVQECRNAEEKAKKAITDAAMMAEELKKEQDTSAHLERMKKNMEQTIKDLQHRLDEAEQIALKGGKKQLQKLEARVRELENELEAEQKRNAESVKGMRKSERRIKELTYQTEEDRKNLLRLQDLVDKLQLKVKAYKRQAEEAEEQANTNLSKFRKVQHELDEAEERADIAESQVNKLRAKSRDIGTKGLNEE
bovine cardiac myosin, sequence (P85100 whole entry partner): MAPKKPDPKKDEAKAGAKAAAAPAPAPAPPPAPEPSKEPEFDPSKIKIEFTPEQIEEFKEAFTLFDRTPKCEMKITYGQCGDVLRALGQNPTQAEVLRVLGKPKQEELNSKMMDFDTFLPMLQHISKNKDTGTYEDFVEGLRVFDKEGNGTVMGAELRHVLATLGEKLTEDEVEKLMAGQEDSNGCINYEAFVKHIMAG
bovine cardiac myosin, sequence (Q3SZE5 whole entry partner): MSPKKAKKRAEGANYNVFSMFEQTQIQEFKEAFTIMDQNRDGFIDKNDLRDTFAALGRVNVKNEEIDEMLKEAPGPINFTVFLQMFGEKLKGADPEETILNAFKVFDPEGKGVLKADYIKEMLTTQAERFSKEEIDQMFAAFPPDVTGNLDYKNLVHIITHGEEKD

| SMILES | Myosin Activation (AC20) |
| --- | --- |
| Cn1cc(S(=O)(=O)C(C)(C)C2CCN(C(=O)Nc3nnco3)CC2)c(C(F)F)n1 [Compound 145, 4-(2-((3-(difluoromethyl)-1-methyl-1H-pyrazol-4-yl)sulfonyl)propan-2-yl)-N-(1,3,4-oxadiazol-2-yl)piperidine-1-carboxamide] | + (+ represents myosin activation value AC20 > 5 μM) |
| CC(C)(C1CCN(C(=O)Nc2cn[nH]c2)CC1)S(=O)(=O)c1cccc(F)c1 [Compound 146, 4-(2-((3-fluorophenyl)sulfonyl)propan-2-yl)-N-(1H-pyrazol-4-yl)piperidine-1-carboxamide] | ++ (++ represents myosin activation value AC20 from 2 μM-5 μM) |
| CC(C)(C1CCN(C(=O)Nc2cc[nH]n2)CC1)S(=O)(=O)c1cccc(F)c1 [Compound 147, 4-(2-((3-fluorophenyl)sulfonyl)propan-2-yl)-N-(1H-pyrazol-3-yl)piperidine-1-carboxamide] | + (+ represents myosin activation value AC20 > 5 μM) |
| Cn1cncc1S(=O)(=O)C(C)(C)C1CCN(C(=O)Nc2ccnnc2)CC1 [Compound 148, 4-(2-((1-methyl-1H-imidazol-5-yl)sulfonyl)propan-2-yl)-N-(pyridazin-4-yl)piperidine-1-carboxamide] | + (+ represents myosin activation value AC20 > 5 μM) |
| CC(C)(C1CCN(C(=O)Nc2ccnc(F)c2)CC1)S(=O)(=O)c1cccc(F)c1 [Compound 151, 4-(2-((3-fluorophenyl)sulfonyl)propan-2-yl)-N-(2-fluoropyridin-4-yl)piperidine-1-carboxamide] | ++ (++ represents myosin activation value AC20 from 2 μM-5 μM) |
| CC(C)(C1CCN(C(=O)Nc2ccc(F)nc2)CC1)S(=O)(=O)c1cccc(F)c1 [Compound 152, 4-(2-((3-fluorophenyl)sulfonyl)propan-2-yl)-N-(6-fluoropyridin-3-yl)piperidine-1-carboxamide] | ++ (++ represents myosin activation value AC20 from 2 μM-5 μM) |
| CC(C)(C1CCN(C(=O)Nc2nnco2)CC1)S(=O)(=O)c1cccc(F)c1 [Compound 153, 4-(2-((3-fluorophenyl)sulfonyl)propan-2-yl)-N-(1,3,4-oxadiazol-2-yl)piperidine-1-carboxamide] | + (+ represents myosin activation value AC20 > 5 μM) |
| Cc1cc(NC(=O)N2CCC(C(C)(C)S(=O)(=O)c3cn(C)nc3C(F)F)CC2)cnn1 [Compound 154, 4-(2-((3-(difluoromethyl)-1-methyl-1H-pyrazol-4-yl)sulfonyl)propan-2-yl)-N-(6-methylpyridazin-4-yl)piperidine-1-carboxamide] | + (+ represents myosin activation value AC20 > 5 μM) |
| Cc1ccc(NC(=O)N2CCC(C(C)(C)S(=O)(=O)c3cn(C)nc3C(F)F)CC2)cn1 [Compound 155, 4-(2-((3-(difluoromethyl)-1-methyl-1H-pyrazol-4-yl)sulfonyl)propan-2-yl)-N-(6-methylpyridin-3-yl)piperidine-1-carboxamide] | ++ (++ represents myosin activation value AC20 from 2 μM-5 μM) |
| CC(C)(C1CCN(C(=O)Nc2nccs2)CC1)S(=O)(=O)c1cccc(F)c1 [Compound 156, 4-(2-((3-fluorophenyl)sulfonyl)propan-2-yl)-N-(thiazol-2-yl)piperidine-1-carboxamide] | + (+ represents myosin activation value AC20 > 5 μM) |
| Cn1cc(S(=O)(=O)C(C)(C)C2CCN(C(=O)Nc3cnoc3)CC2)c(C(F)F)n1 [Compound 157, 4-(2-((3-(difluoromethyl)-1-methyl-1H-pyrazol-4-yl)sulfonyl)propan-2-yl)-N-(isoxazol-4-yl)piperidine-1-carboxamide] | +++ (+++ represents myosin activation value AC20 < 2 μM) |
| CC(C)(C1CCN(C(=O)Nc2cnoc2)CC1)S(=O)(=O)c1cccc(F)c1 [Compound 158, 4-(2-((3-fluorophenyl)sulfonyl)propan-2-yl)-N-(isoxazol-4-yl)piperidine-1-carboxamide] | +++ (+++ represents myosin activation value AC20 < 2 μM) |
